The results in this text go back to US10858331B1, “Ester nitrates derivatives of aromatic aldehydes with multiple pharmalogic properties to treat sickle cell disease” (VIRGINIA COMMONWEALTH UNIVERSITY, priority 2013, dated 2020).

Series [1] in a line: NO release study (Griess assay) in presence of L-cysteine. Particulars: for NO2− release after 1 hour / NO2− release after 16 hours: 2 mM compound solution mixed with 36 mM L-cysteine, phosphate buffer pH 7.4, 37° C., anaerobic; for NO release in the form of NO2− (rank among the compounds): comparison of the four nitrate esters. As to the method: Griess assay was performed on the left-shifting nitrate ester compounds (TD-1, […], TD-8-1 and, TD-9-1) to measure the release of NO. Griess assay is a colorimetric assay, used for detection of NO in the form of nitrite ions (NO2^−). NO released in solution is highly unstable, with a half-life of 1 to 30 s. It gets rapidly oxidized to NO2^− which is detected by the Griess reagent. In this method, NO2^−, first reacts with the sulfanilamide present in the reagent to form a transient diazonium salt. […] Sodium nitrite (NaNO2) was used as a standard for the Griess assay. NaNO2 samples in deionized water were prepared of concentrations within the linear range of the assay (1-100 μM). The samples were incubated for 30 min at 37° C., after which Griess reagent was added and absorbance was measured at 540 nm. The measured absorbances were used to obtain a standard curve (FIG. 3). For the measurement of NO2^− release for all the test compounds (TD-1, TD-7-1, TD-8-1 and TD-9-1), the absorbances were extrapolated from the standard NaNO2 curve.
In this assay, a solution of the test compound (1 mL of a 2 mM solution in 0.1 M phosphate buffer (pH 7.4)) was mixed thoroughly with a freshly prepared solution of L-cysteine (1 mL of a 36 mM solution in 0.1 M phosphate buffer, pH 7.4), and incubated at 37° C., for 1 and 16 h under anaerobic conditions. After exposure to air for 10 min at 25° C., an aliquot of the Griess reagent (1 mL) [freshly prepared by mixing equal volumes of 1.0% sulfanilamide (prepared and stored in aqueous 5% phosphoric acid) and 0.1% N-naphthylethylenediamine dihydrochloride in water] was added to an equal volume (1 mL) of each incubation solution after mixing. After 10 min, absorbance was measured at 540 nm using a Hewlett Packard (Agilent) 8453 UV-visible Spectroscopy. NaNO2 solutions of 1-100 μM concentrations were used to prepare a standard nitrite curve of absorbance […] versus concentration (μM). The NO released (quantitated as NO2^− release in μM) was calculated from the standard nitrite curve by extrapolation of the absorbance. […]
Background: Nitrite, measured by Griess reagent, commonly stands in for NO production.

A further series deals with T1, cell-free Hb (Homo sapiens, UniProt P68871+P69905).
T1 construct: Hemoglobin was prepared from centrifuging human blood; from tissue; host or cells: human blood (red cells lysed, Hb purified on DEAE sephacel)
T1 sequence (P69905 2-142 limits assumed): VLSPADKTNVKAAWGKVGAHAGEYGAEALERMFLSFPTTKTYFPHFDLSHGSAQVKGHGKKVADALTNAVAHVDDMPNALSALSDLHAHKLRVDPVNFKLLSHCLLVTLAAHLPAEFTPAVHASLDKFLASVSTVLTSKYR
T1 sequence (P68871 2-147 limits assumed): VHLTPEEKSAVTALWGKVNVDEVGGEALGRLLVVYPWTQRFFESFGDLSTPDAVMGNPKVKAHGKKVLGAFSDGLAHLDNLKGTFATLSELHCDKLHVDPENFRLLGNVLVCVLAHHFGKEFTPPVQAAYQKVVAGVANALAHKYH
Put plainly: OEC study with normal cell-free Hb. It is filed as biochemical. Conditions: cell-free Hb 12 mg/mL, 2 mM compound; for N (Hill coefficient) / P50: n = 1; for ΔP50: versus control P50 12.5. As to the method: (§1) Studies were performed on compounds TD-7, TD-7-1, TD-8, TD-8-1, TD-9 and TD-9-1 using 100 mM stock solution in DMSO and normal whole blood (AA). TD-7, TD-8 and TD-9 are compounds with a hydroxymethyl group on the pyridine ring, while TD-7-1, TD-8-1 and TD-9-1 are the respective nitrate ester derivatives. The whole blood samples had hematocrit values ranging from 29-36%, and cell-free purified Hb of 10-12 g/dL in the absence or presence of effectors solubilized in DMSO at 2 mM or in some cases with varying compound concentration. The blood samples were incubated in an IL 237 tonometer (Instrumentation Laboratories, Inc., Lexington, Mass.) for about 5-7 min at 37° C. against a gas mixture containing O2 concentrations of 0.804%, 2.935% and 5.528% and allowed to equilibrate at O2 tensions of 6, 20 and 40 mmHg. After equilibration, the sample was removed via syringe and aspirated into a ABL 700 series table top automated blood gas analyzer (Radiometer America, Inc., Westlake, Ohio) to determine total hemoglobin (tHb), hematocrit (Hct), pH, pCO2, partial pressure of oxygen (pO2), and the Hb oxygen saturation values (sO2). Similar procedures were followed for concentration and time dependence studies. The measured values of pO2 and sO2 at each oxygen saturation level were then subjected to a non-linear regression analysis using the program Scientist (Micromath, Salt Lake City, Utah) with the following equation: […]
Hemoglobin was prepared from centrifuging human blood at 2500 rpms for 20 min at 4° C. The supernatant solution, debris and plasma were discarded from the centrifuge bottles, leaving behind RBCs. The RBCs were washed thrice with an excess volume of 0.9% NaCl, and once with 1.0% NaCl, each time centrifuging and discarding the supernatant solution. The RBCs were pooled together into a chilled flask and hemolyzed to free Hb by adding 1-2 volume excess of 50 mM Tris buffer, pH 8.6 (containing EDTA). The mixture was allowed to stand in ice for 30 min with occasional stirring. The Hb solution was centrifuged at 10,000 rpm for 2 h at 4° C. The supernatant Hb solution was pooled into a chilled flask and NaCl (40-60 mg/mL Hb solution) was slowly added with stirring. Hemoglobin solution was centrifuged at 10,000 rpm for 2 h at 4° C. to remove any cell stroma remnants. The clear supernatant Hb solution was pooled into a chilled flask and the “syrupy” pellet was discarded. Hemoglobin solution was dialyzed against 50 mM Tris buffer, pH 8.6 (containing EDTA) at 4° C. to remove NaCl and/or other low molecular weight impurities. Strips of standard cellulose dialysis tubing that had been washed 3-4 times and boiled for 10 min in deionized water were used for dialysis. The dialyzed Hb was further purified by ion-exchange chromatography using DEAE sephacel to exclude 2,3-DPG. The resin was equilibrated with 50 mM Tris buffer, pH 8.6, and the Hb solution was run through the column with 50 mM Tris buffer, pH 8.6 (containing EDTA). The pooled fractions were concentrated with an Amicon stirred cell (Amicon, Model 402), to a final HbA concentration of about 80-120 mg/mL. Concentrated HbA was stored at −80° C.
As a result of the low left-shifting activities of TD-8 and TD-9, as well as the nitrate ester derivatives, we further evaluated the activity of the compounds TD-1, TD-7, TD-7-1, TD-8, and TD-9 using cell-free Hb (devoid of any proteins, enzymes, plasma and cell membranes) to determine whether plasma protein or RBC membrane could have any effect on compound biological activity. Previous studies have shown limited effect of plasma protein and RBC membrane on SHMF activity. The same tonometry procedure used on whole blood was used with the cell-free hemoglobin using 2 mM compound and 12 mg/mL of Hb.

The next series deals with SS cells. Put plainly: In vitro RBC anti-sickling (morphological) study with SS cells. The format is cell-based, human. As to the method: In vitro RBC morphological (anti-sickling) analysis was conducted at the Children's Hospital of Philadelphia (by Drs. Toshio Asakura and Osheiza Abdulmalik). The anti-sickling effects of 5HMF, TD-7 HCl, TD-7, TD-1, and TD-7-1 were studied by incubating suspensions of SS cells in the absence or presence of three different concentrations of the effectors in the presence of air for 1 h at 37° C. followed by incubation under 4% oxygen at 37° C. for 5 h. All samples were pre-incubated for 1 h with various compounds and then incubated under 4% O2 for 5 h. […] Table 5 represents the concentrations of the effectors along with the % inhibition of sickling cells. The hemolysates that had been prepared from SS cells after incubation with test compounds were also subjected to cation-exchange HPLC as previously reported (Abdulmalik et al., 2005).

A further series deals with T2, Hb (Homo sapiens, UniProt P68871+P69905).
T2 construct: normal whole blood (AA); from tissue; host or cells: normal whole blood (AA), red blood cells
T2 sequence (P69905 2-142 limits assumed): as the sequence (P69905 2-142 limits assumed) above
T2 sequence (P68871 2-147 limits assumed): as the sequence (P68871 2-147 limits assumed) above
Put plainly: Oxygen equilibrium curve (OEC) study with normal whole blood (AA). Conditions: 2 mM compound, 1.5 h incubation; for P50: 37° C.; for ΔP50: versus DMSO control. The format is cell-based. As to the method:
as §1
This equation was used to calculate P50 and Hill coefficient (N) values. Corresponding control experiments without the test compound (P50control) but containing DMSO were also performed.

Consider `O=Cc1ccc(CO[N+](=O)[O-])o1` [TD-1, 5-Nitrooxymethyl furfural], for which, in series [1], the “NO2− release after 1 hour” value was found to be 4.02 µM and the “NO release in the form of NO2− (rank among the compounds)” value is given as “least release”. On cell-free Hb, the “N (Hill coefficient)” value is given as 2.0, the P50 worked out at 8.4 mmHg and the ΔP50 is on record as −4.1 mmHg. Moreover, the “Anti-sickling effect (in words)” value in the series on SS cells (SS cells, 4% O2, 5 h, concentration not given, in comparison with 5HMF) is “only a modest decrease in the anti-sickling effect”. Besides, on Hb, the “N (Hill coefficient)” value is given as 1.9 ± 0.1^c†, the P50 is listed as 27.4 ± 2.3^c† mmHg and the ΔP50 was −3.9 mmHg.
`COc1ccc(OCc2cccc(CO[N+](=O)[O-])n2)c(C=O)c1` [TD-7-1, (6-((2-Formyl-4-methoxyphenoxy)methyl)pyridin-2-yl)methyl nitrate]: in series [1], the “NO2− release after 1 hour” value was 7.61 µM and the “NO2− release after 16 hours” value worked out at 59.25 µM. Also, on cell-free Hb, the “N (Hill coefficient)” value stood at 2.1, the P50 was found to be 7.7 mmHg and the ΔP50 is listed as −3.9 mmHg. The inhibition at 500 µM in the series on SS cells (Homo sapiens, 0.5 mM, SS cells, 1 h air then 4% O2, 37° C., 5 h, read-out: Inhibition of sickled cells) stood at 72%. Besides, in the series on SS cells (Homo sapiens, 1.0 mM, SS cells, 1 h air then 4% O2, 37° C., 5 h, read-out: Inhibition of sickled cells), the inhibition at 1000 µM came to 100%. Further, the inhibition at 2000 µM with SS cells (Homo sapiens, 2.0 mM, SS cells, 1 h air then 4% O2, 37° C., 5 h, read-out: Inhibition of sickled cells) was 100%. Moreover, the “Hemolysis of RBC” value with SS cells (at higher drug concentrations) was “hemolyzed the RBC at higher drug concentrations”. Besides, at Hb, the “N (Hill coefficient)” value is recorded as 1.7 ± 0.1^c†, the P50 is on record as 23.4 ± 1.6^c† mmHg and the ΔP50 was −7.9 mmHg.
Regarding `COc1ccc(C=O)cc1OCc1cccc(CO[N+](=O)[O-])n1` [TD-8-1, (6-((5-Formyl-2-methoxyphenoxy)methyl)pyridin-2-yl)methyl nitrate], in series [1], the “NO2− release after 16 hours” value was determined as 102.54 µM and the “NO release in the form of NO2− (rank among the compounds)” value is “most release”. Further, at Hb, the “N (Hill coefficient)” value is listed as 2.1^d†, the P50 is on record as 30.8^d† mmHg and the ΔP50 is −0.5 mmHg.
As to `COc1ccc(C=O)c(OCc2cccc(CO[N+](=O)[O-])n2)c1` [TD-9-1, (6-((2-Formyl-5-methoxyphenoxy)methyl)pyridin-2-yl)methyl nitrate], the “NO2− release after 16 hours” value in series [1] is 78.66 µM. For the same compound, at Hb, the “N (Hill coefficient)” value is on record as 1.9^d†, the P50 is 28.6^d† mmHg and the ΔP50 was −2.7 mmHg.

As usually defined, the inhibition is the change of the read-out against control, counted positive when it falls.
